The values below come from patent publication US5130320A, “Glycosidase inhibiting 1,3-dideoxy-3-fluoronojirimycin” (Monsanto Company, priority 1991, dated 1992).

Holding throughout (format): biochemical
Assay [1] has as its system almond β-glucosidase. Description: β-Glucosidase inhibition assay, pH 7.4. The method, then:
(§1) The glycosidase inhibition activity is determined by modifying an assay procedure described in Evans et al, Phytochemistry, 22, pp. 768-770 (1983). More particularly, yeast α-glucosidase and almond β-glucosidase activities were measured by the Evans et al method which was modified by assaying activities at pH 7.4 in N-2-hydroxyethylpiperazine-N-2-ethane sulfonic acid (HEPES) buffer, measuring in 96 well microtiter plates, and including 10% DMSO in control and test samples.
(§2) The release of p-nitrophenol from the substrate p-nitrophenylglycoside was measured spectrophotometrically in the presence and absence of test compound. Each assay included a known inhibitor of the enzyme as a standard. IC50 values were determined for compounds which inhibited the enzymes more than 50% at a 1 millimolar concentration.
To 100 ul 50 mM HEPES buffer, pH 7.4, in a microtiter plate, 20 ul test compound in DMSO (DMSO alone in control) and 40 ul (0.136 units) β-glucosidase (Sigma) in HEPES buffer were added and pre-incubated at room temperature 15 minutes. 40 ul 1.25 mM p-nitrophenyl-β-D-glucopyranoside in HEPES buffer was added as substrate and the absorbance change at 405 nm was monitored utilizing a Biotek EIA Autoreader. Absorption change was measured at 15 to 25 minutes (reaction is linear for at least 30 minutes). Each sample was tested in triplicate. IC50 values were determined from the linear portion of the log concentration vs percent inhibition curve obtained from a minimum of 3 points. Castanospermine was used as standard inhibitor.

Assay [2] addresses T1, ALPHA MANNOSIDASE (Canavalia ensiformis, UniProt C0HJB3).
T1 sequence (C0HJB3 1-981): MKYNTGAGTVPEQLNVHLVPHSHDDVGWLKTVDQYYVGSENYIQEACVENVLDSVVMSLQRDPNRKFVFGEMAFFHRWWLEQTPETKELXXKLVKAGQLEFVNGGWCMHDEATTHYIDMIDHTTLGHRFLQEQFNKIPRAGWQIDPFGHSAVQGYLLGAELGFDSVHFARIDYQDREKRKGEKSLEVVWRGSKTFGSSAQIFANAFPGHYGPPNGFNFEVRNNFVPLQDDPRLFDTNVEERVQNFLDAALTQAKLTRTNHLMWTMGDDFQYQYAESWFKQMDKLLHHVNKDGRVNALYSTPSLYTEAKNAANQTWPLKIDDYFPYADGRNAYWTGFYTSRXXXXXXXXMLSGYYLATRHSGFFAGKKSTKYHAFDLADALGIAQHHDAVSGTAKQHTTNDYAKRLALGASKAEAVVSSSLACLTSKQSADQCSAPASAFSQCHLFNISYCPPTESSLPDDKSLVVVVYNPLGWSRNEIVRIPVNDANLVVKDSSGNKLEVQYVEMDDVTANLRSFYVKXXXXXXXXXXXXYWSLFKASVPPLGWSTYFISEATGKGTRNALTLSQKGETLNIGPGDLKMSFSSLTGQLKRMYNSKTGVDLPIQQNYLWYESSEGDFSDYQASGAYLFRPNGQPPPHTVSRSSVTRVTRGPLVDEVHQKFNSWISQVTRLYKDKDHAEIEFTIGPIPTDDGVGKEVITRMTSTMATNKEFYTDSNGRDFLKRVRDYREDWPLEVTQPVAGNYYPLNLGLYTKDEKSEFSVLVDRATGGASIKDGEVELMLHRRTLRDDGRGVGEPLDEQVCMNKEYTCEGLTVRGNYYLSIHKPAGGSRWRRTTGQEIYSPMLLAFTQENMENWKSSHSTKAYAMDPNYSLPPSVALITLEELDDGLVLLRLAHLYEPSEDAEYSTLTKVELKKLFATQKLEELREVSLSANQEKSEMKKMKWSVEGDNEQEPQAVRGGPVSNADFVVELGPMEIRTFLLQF
Description: Alpha mannosidase inhibition, pH 7.4. Conditions: for inhibition at 1000 µM: @ 1 mM; for inhibition at 5000 µM: @ 5 mM.

Assay [3] concerns almond β-glucosidase. In words: β-Glucosidase inhibition assay, pH 4.8. The method, then: as §1, §2
To 100 ul 50 mM sodium citrate buffer, pH 4.8, in a microtiter plate, 20 ul test compound in DMSO (DMSO alone in control) and 20 ul (0.017 units) β-glucosidase (Sigma) in citrate buffer were added and pre-incubated at room temperature 15 minutes. 20 ul 2.50 mM p-nitrophenyl-β-D-glucopyranside in citrate buffer was added as substrate and incubated at room temperature minutes (reaction is linear for at least 30 minutes). 50 ul 0.4 M NaOH was added and the absorption change at 405 nm was determined utilizing a Biotek EIA Autoreader. Each sample was tested in triplicate. IC50 values were determined from the linear portion of the log concentration vs percent inhibition curve obtained from a minimum of 3 points. Castanospermine was used as standard inhibitor.

Assay [4] deals with T1, ALPHA MANNOSIDASE
Description: Alpha mannosidase inhibition, pH 4.5. The settings on record: for inhibition at 1000 µM: @ 1 mM; for inhibition at 5000 µM: @ 5 mM.

Assay [5] concerns the target T2, yeast α-glucosidase (Saccharomyces cerevisiae, UniProt P53341).
T2 construct: purchased Sigma
Description: α-Glucosidase inhibition assay, pH 7.4. The settings on record: read-out: ALPHA GLUCOSIDASE inhibition; for inhibition at 1000 µM: @ 1 mM; for inhibition at 5000 µM: @ 5 mM. As to the method:
as §1, §2
To 100 ul 50 mM HEPES buffer, pH 7.4, in a microtiter plate, 20 ul test compound in DMSO (DMSO alone in control)and 40 ul (0.013 units) yeast α-glucosidase (Sigma) in HEPES buffer were added and pre-incubated at room temperature 15 minutes. 40 ul 1.25 mM p-nitrophenyl-α-D-gl-ucopyranoside (Sigma) in HEPES buffer, as substrate was added and the absorbance change at 405 nm was monitored in a Biotek EIA Autoreader. Absorption change was measured at 15 to 25 minutes (reaction was linear for at least 30 minutes). Each sample was tested in triplicate. IC50 values were determined from the linear portion of the log concentration vs percent inhibition curve obtained from a minimum of 3 points. Deoxynojirimycin was used as standard inhibitor.

T2 sequence (P53341 whole entry): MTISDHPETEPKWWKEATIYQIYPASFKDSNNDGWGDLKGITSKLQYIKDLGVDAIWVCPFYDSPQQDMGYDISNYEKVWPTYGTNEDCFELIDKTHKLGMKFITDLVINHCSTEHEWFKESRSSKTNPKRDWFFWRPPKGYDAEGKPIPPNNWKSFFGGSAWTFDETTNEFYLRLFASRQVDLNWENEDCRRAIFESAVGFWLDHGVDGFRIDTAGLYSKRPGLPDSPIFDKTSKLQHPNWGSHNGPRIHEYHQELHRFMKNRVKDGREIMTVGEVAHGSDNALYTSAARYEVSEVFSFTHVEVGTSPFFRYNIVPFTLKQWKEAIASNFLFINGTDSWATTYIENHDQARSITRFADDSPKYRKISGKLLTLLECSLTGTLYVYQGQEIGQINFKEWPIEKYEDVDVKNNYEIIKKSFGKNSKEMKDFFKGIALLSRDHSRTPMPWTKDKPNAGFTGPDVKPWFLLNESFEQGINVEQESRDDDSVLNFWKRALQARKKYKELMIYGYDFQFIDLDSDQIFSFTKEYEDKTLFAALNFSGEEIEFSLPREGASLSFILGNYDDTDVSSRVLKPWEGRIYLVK

Regarding `CCCCN1C[C@H](O)[C@@H](F)[C@H](O)[C@H]1CO` [Compound 2, N-butyl-1,3-dideoxy-3-fluoronojirimycin], the “BETA GLUCOSIDASE-pH 7.4 inhibition” value in assay [1] (@ 1 mM) came to 0%; in assay [1] (@ 5 mM) it was 2%. Moreover, the inhibition – broadly, the share of the control response that was lost under treatment – at 1000 µM is 7% in assay [2], 6% in assay [4] and 11% in assay [5]. The inhibition at 5000 µM in assay [2] is 11%; in assay [4] it was 5%; in assay [5] it was 18%. In addition, the “BETA GLUCOSIDASE-pH 4.8 inhibition” value is 8% in assay [3] (@ 1 mM) and -10% in assay [3] (@ 5 mM).
Turning to `OC[C@H]1NC[C@H](O)[C@@H](F)[C@@H]1O` [Compound 1, 1,3-dideoxy-3-fluoronojirimycin], the entries for the “BETA GLUCOSIDASE-pH 7.4 inhibition” value in assay [1] (@ 1 mM) and in assay [1] (@ 5 mM) were 3% and 24%, respectively. The inhibition at 1000 µM in assay [2] stood at 10%; in assay [4], 11%; in assay [5], 26%. Also, the inhibition at 5000 µM in assay [2] was 30%; in assay [4], 19%; in assay [5] it was 63%. The “BETA GLUCOSIDASE-pH 4.8 inhibition” value in assay [3] (@ 1 mM) is given as 4%; in assay [3] (@ 5 mM) it was 10%.
